Where two headings read alike, the source gives them in different places.
Assays:
[1] = biological target: T1, purified human BChE (Homo sapiens, UniProt P06276); assay: biochemical; assay type: biochemical
T1 construct: possibly also a gift of Dr Florian Nachon (the sentence is ambiguous)
Protocol: (§1) Acetylthiocholine (ATCh) and 5,5′-dithiobis(2-nitrobenzoic acid) (DTNB) were purchased from Sigma-Aldrich, St. Louis, MO, USA. ATCh was dissolved in water and DTNB in 0.1 M sodium phosphate buffer (pH 7.4). The 4-aminoquinilines were dissolved in DMSO and all further dilutions were made in water.
(§2) The sources of AChE and BChE were purified human BChE and recombinant human AChE that was kindly provided by Dr Florian Nachon (Département de Toxicologie, Armed Forces Biomedical Research Institute, Brétigny-sur-Orge, France). […] The enzymes were diluted in sodium phosphate buffer 0.1 M (pH 7.4) containing 0.1% BSA.
(§3) Enzyme activities were measured spectrophotometrically using a slightly modified Ellman method, as described earlier. […] At least three inhibitor concentrations for each substrate concentration were used in at least three experiments. The apparent inhibition constant (Ki,app) was calculated using the Hunter–Downs Equation and linear regression analysis:(1) Ki,app=vi·i/v0−vi=Ki+Ki/KS·s where the y-intercept determines the enzyme-inhibitor dissociation constant (Ki), while the x-intercept determines the enzyme-substrate dissociation constant, KS.
(§4) The Hunter–Downs Equation was used under the assumption that the substrate, due to relatively low concentrations used in experiments, would bind only to the catalytic site of the enzymes, while the inhibitors would bind to both CAS and/or PAs. This allowed the type of inhibition to be determined from Ki,app vs. substrate concentration ([S]) dependency on Hunter–Downs plot.
(§5) The final content of DMSO in the measurements was up to 0.2%. […] The measurements were performed at 25 °C on a Tecan Infinite M200Pro plate reader (Tecan Austria GmbH, Salzburg, Austria).

[2] = biological target: T2, recombinant human AChE (Homo sapiens, UniProt P22303); assay: biochemical; assay type: biochemical; conditions: for IS: IS = Ki(BChE)/Ki(AChE), IS > 1 selective to AChE
T2 construct: gift of Dr Florian Nachon (Armed Forces Biomedical Research Institute, Brétigny-sur-Orge, France)
T2 sequence (P22303 32-614): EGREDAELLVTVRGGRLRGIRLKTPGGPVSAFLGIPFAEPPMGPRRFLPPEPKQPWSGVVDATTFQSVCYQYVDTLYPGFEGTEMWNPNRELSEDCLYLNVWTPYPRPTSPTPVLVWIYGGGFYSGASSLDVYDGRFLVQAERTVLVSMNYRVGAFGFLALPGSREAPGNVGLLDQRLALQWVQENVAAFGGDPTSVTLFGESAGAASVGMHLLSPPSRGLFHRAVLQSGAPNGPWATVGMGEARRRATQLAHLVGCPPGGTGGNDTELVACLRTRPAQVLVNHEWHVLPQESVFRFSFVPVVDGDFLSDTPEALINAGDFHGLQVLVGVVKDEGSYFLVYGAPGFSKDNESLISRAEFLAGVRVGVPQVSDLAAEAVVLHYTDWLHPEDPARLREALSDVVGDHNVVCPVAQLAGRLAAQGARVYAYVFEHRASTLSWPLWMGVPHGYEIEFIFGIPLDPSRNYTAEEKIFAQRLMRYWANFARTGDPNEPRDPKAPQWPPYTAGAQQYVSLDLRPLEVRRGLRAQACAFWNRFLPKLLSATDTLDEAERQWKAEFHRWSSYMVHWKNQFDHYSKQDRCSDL
Protocol: as §1, §2, §3, §4, §5

[3] = Reverse-phase thin-layer chromatographic lipophilicity (RF, RM0); assay type: physicochemical; conditions: for RM0: intercept of RM = RM0 + bC; for b: slope of RM = RM0 + bC; for RF, Methanol/Water/Hydrochloric acid (conc.), mobile phase I / RF, Dioxane/Water/Hydrochloric acid (conc.), mobile phase II / RF, Methanol/Water/Hydrochloric acid (conc.), mobile phase II / RF, Acetone/Water/Hydrochloric acid (conc.), mobile phase III / RF, Dioxane/Water/Hydrochloric acid (conc.), mobile phase III / RF, Methanol/Water/Hydrochloric acid (conc.), mobile phase III / RF, Dioxane/Water/Hydrochloric acid (conc.), mobile phase IV / RF, Acetone/Water/Hydrochloric acid (conc.), mobile phase IV / RF, Methanol/Water/Hydrochloric acid (conc.), mobile phase IV / RF, Acetone/Water/Hydrochloric acid (conc.), mobile phase IX / RF, Methanol/Water/Hydrochloric acid (conc.), mobile phase IX / RF, Dioxane/Water/Hydrochloric acid (conc.), mobile phase V / RF, Acetone/Water/Hydrochloric acid (conc.), mobile phase V / RF, Methanol/Water/Hydrochloric acid (conc.), mobile phase V / RF, Dioxane/Water/Hydrochloric acid (conc.), mobile phase VI / RF, Acetone/Water/Hydrochloric acid (conc.), mobile phase VI / RF, Methanol/Water/Hydrochloric acid (conc.), mobile phase VI / RF, Acetone/Water/Hydrochloric acid (conc.), mobile phase VII / RF, Methanol/Water/Hydrochloric acid (conc.), mobile phase VII / RF, Acetone/Water/Hydrochloric acid (conc.), mobile phase VIII / RF, Methanol/Water/Hydrochloric acid (conc.), mobile phase VIII: RP-18 silica; for RF, Methanol/Water/Hydrochloric acid (conc.), mobile phase I: I = 90%MeOH/5%H2O/5%HCl; for RF, Dioxane/Water/Hydrochloric acid (conc.), mobile phase II: II = 80%Dioxane/15%H2O/5%HCl; for RF, Methanol/Water/Hydrochloric acid (conc.), mobile phase II: II = 85%MeOH/10%H2O/5%HCl; for RF, Acetone/Water/Hydrochloric acid (conc.), mobile phase III: III = 70%AC/25%H2O/5%HCl; for RF, Dioxane/Water/Hydrochloric acid (conc.), mobile phase III: III = 70%Dioxane/25%H2O/5%HCl; for RF, Methanol/Water/Hydrochloric acid (conc.), mobile phase III: III = 80%MeOH/15%H2O/5%HCl; for RF, Dioxane/Water/Hydrochloric acid (conc.), mobile phase IV: IV = 60%Dioxane/35%H2O/5%HCl; for RF, Acetone/Water/Hydrochloric acid (conc.), mobile phase IV: IV = 65%AC/30%H2O/5%HCl; for RF, Methanol/Water/Hydrochloric acid (conc.), mobile phase IV: IV = 75%MeOH/20%H2O/5%HCl; for RF, Acetone/Water/Hydrochloric acid (conc.), mobile phase IX: IX = 40%AC/55%H2O/5%HCl; for RF, Methanol/Water/Hydrochloric acid (conc.), mobile phase IX: IX = 50%MeOH/45%H2O/5%HCl; for RF, Dioxane/Water/Hydrochloric acid (conc.), mobile phase V: V = 50%Dioxane/45%H2O/5%HCl; for RF, Acetone/Water/Hydrochloric acid (conc.), mobile phase V: V = 60%AC/35%H2O/5%HCl; for RF, Methanol/Water/Hydrochloric acid (conc.), mobile phase V: V = 70%MeOH/25%H2O/5%HCl; for RF, Dioxane/Water/Hydrochloric acid (conc.), mobile phase VI: VI = 40%Dioxane/55%H2O/5%HCl; for RF, Acetone/Water/Hydrochloric acid (conc.), mobile phase VI: VI = 55%AC/40%H2O/5%HCl; for RF, Methanol/Water/Hydrochloric acid (conc.), mobile phase VI: VI = 65%MeOH/30%H2O/5%HCl; for RF, Acetone/Water/Hydrochloric acid (conc.), mobile phase VII: VII = 50%AC/45%H2O/5%HCl; for RF, Methanol/Water/Hydrochloric acid (conc.), mobile phase VII: VII = 60%MeOH/35%H2O/5%HCl; for RF, Acetone/Water/Hydrochloric acid (conc.), mobile phase VIII: VIII = 45%AC/50%H2O/5%HCl; for RF, Methanol/Water/Hydrochloric acid (conc.), mobile phase VIII: VIII = 55%MeOH/40%H2O/5%HCl
Protocol: Chromatographic determination of lipophilicity
Merck, Darmstadt, Germany). The mobile phase contained organic modifier (methanol, acetone or dioxane), water and hydrochloric acid.
Methanol was varied in the range […]
with an increment of 10%. […]
before chromatogram development. The solvent developing distance was 4.5 cm. Detection of […]
All experiments were performed at ambient temperature (22±2 °C). Retention parameters were calculated as previously described. […]

[4] = Ferric reducing antioxidant power (FRAP) assay; conditions: mean ± standard error of three experiments;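 further: expressed as µM Fe2+ equivalents from an FeSO4·7H2O standard curve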
Protocol: . All the chemicals were purchased from Sigma-Aldrich (St. Louis, MO, USA), except for tripyridyltriazine (TPTZ) (Fluka, Buchs, Switzerland) and FeCl3 (Kemika, Zagreb, Croatia). The FRAP assay was assessed according to Benzie and Strain [53] with slight procedure adjustments for 96-well microplates. The method is based on the reduction of the ferric-tripyridyltriazine (Fe^3+-TPTZ) complex to ferrous tripyridyltriazine (Fe^2+-TPTZ) by the action of electron-donating compounds at a low pH. Briefly, the FRAP reagent was prepared by mixing acetate buffer (300 mM, pH 3.6), a solution of 10 mM TPTZ in 40 mM HCl, and 20 mM FeCl3 at 10:1:1 (v/v/v). Then, 240 μL of FRAP reagent and 10 μL of sample solution were added to a 96-well plate and incubated at 37 °C for 60 min. The absorbance was measured at 593 nm using a microplate reader (Infinite M200PRO, Tecan Austria GmbH, Salzburg, Austria) against a blank. The reducing capacity was determined for 10 and 100 µM compound concentrations. […]. All measurements were performed in three independent experiments. FRAP values, denominating the reduction of ferric-tripyridyltriazine (Fe^3+-TPTZ) to ferrous tripyridyltriazine (Fe^2+-TPTZ) by 4-aminoquinolines were calculated based on a standard curve obtained using […].

[5] = logarithm of Ki in µM, BChE, dependent variable of the QSAR model, read-out: Y Measured 2 log(ki)Bche, log (Ki/µM BChE) (converted)
[6] = ± standard error, 25 °C, ATCh substrate, read-out: Ki BChE
[7] = log (Ki/µM AChE), read-out: Y Measured 1 log(ki)Ache (converted)
[8] = ± standard error, 25 °C, ATCh substrate, read-out: Ki AChE
[9] = Acetone/Water/Hydrochloric acid (conc.)
[10] = Dioxane/Water/Hydrochloric acid (conc.)
[11] = Methanol/Water/Hydrochloric acid (conc.)

T1 sequence (P06276 29-602): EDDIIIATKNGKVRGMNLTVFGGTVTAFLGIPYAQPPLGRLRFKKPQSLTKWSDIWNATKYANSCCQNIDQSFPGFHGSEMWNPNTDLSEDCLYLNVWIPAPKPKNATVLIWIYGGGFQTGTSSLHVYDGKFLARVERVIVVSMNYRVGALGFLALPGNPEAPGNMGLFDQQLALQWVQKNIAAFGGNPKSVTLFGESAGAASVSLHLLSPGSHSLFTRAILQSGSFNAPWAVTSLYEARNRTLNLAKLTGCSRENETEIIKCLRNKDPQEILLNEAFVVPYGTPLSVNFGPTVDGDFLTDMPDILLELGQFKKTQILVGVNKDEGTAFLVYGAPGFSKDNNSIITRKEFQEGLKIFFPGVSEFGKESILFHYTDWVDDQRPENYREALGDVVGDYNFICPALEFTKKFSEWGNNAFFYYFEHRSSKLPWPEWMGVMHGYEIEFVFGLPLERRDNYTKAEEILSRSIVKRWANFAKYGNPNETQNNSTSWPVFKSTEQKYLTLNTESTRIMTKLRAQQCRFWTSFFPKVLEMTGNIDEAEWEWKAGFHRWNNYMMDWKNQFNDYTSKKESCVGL

FC(F)(F)c1ccc2c(NCCNCC34CC5CC(CC(C5)C3)C4)ccnc2c1 [Compound 6]
Ki [1, 5]: 3.5 µM | Ki [1, 6]: 3.5 ± 0.3 µM | IS [2]: 2.9 | Ki [2, 7]: 1.2 µM | Ki [2, 8]: 1.2 ± 0.1 µM | RM0 [3, 9]: 2.0143 | b [3, 9]: 3.169 | RM0 [3, 10]: 0.9723 | b [3, 10]: 1.909 | RM0 [3, 11]: 2.421 | b [3, 11]: 3.208 | RF, Methanol/Water/Hydrochloric acid (conc.), mobile phase I [3]: 0.73 | RF, Dioxane/Water/Hydrochloric acid (conc.), mobile phase II [3]: 0.74 | RF, Methanol/Water/Hydrochloric acid (conc.), mobile phase II [3]: 0.67 | RF, Acetone/Water/Hydrochloric acid (conc.), mobile phase III [3]: 0.57 | RF, Dioxane/Water/Hydrochloric acid (conc.), mobile phase III [3]: 0.7 | RF, Methanol/Water/Hydrochloric acid (conc.), mobile phase III [3]: 0.51 | RF, Dioxane/Water/Hydrochloric acid (conc.), mobile phase IV [3]: 0.7 | RF, Acetone/Water/Hydrochloric acid (conc.), mobile phase IV [3]: 0.53 | RF, Methanol/Water/Hydrochloric acid (conc.), mobile phase IV [3]: 0.53 | RF, Acetone/Water/Hydrochloric acid (conc.), mobile phase IX [3]: 0.11 | RF, Methanol/Water/Hydrochloric acid (conc.), mobile phase IX [3]: 0.11 | RF, Dioxane/Water/Hydrochloric acid (conc.), mobile phase V [3]: 0.49 | RF, Acetone/Water/Hydrochloric acid (conc.), mobile phase V [3]: 0.45 | RF, Methanol/Water/Hydrochloric acid (conc.), mobile phase V [3]: 0.44 | RF, Dioxane/Water/Hydrochloric acid (conc.), mobile phase VI [3]: 0.33 | RF, Acetone/Water/Hydrochloric acid (conc.), mobile phase VI [3]: 0.36 | RF, Methanol/Water/Hydrochloric acid (conc.), mobile phase VI [3]: 0.39 | RF, Acetone/Water/Hydrochloric acid (conc.), mobile phase VII [3]: 0.32 | RF, Methanol/Water/Hydrochloric acid (conc.), mobile phase VII [3]: 0.23 | RF, Acetone/Water/Hydrochloric acid (conc.), mobile phase VIII [3]: 0.24 | RF, Methanol/Water/Hydrochloric acid (conc.), mobile phase VIII [3]: 0.18 | FRAP ([4]; 10 µM compound): 4.6 ± 0.8 µM | FRAP ([4]; 100 µM compound): 25 ± 6 µM

FC(F)(F)c1ccc2c(NCCCNCC34CC5CC(CC(C5)C3)C4)ccnc2c1 [Compound 7]
Ki [1, 5]: 2.6 µM | Ki [1, 6]: 2.6 ± 0.2 µM | IS [2]: 2.4 | Ki [2, 7]: 1.1 µM | Ki [2, 8]: 1.1 µM | RM0 [3, 9]: 2.012 | b [3, 9]: 3.156 | RM0 [3, 10]: 0.9445 | b [3, 10]: 1.874 | RM0 [3, 11]: 2.606 | b [3, 11]: 3.427 | RF, Methanol/Water/Hydrochloric acid (conc.), mobile phase I [3]: 0.73 | RF, Dioxane/Water/Hydrochloric acid (conc.), mobile phase II [3]: 0.74 | RF, Methanol/Water/Hydrochloric acid (conc.), mobile phase II [3]: 0.67 | RF, Acetone/Water/Hydrochloric acid (conc.), mobile phase III [3]: 0.57 | RF, Dioxane/Water/Hydrochloric acid (conc.), mobile phase III [3]: 0.7 | RF, Methanol/Water/Hydrochloric acid (conc.), mobile phase III [3]: 0.51 | RF, Dioxane/Water/Hydrochloric acid (conc.), mobile phase IV [3]: 0.7 | RF, Acetone/Water/Hydrochloric acid (conc.), mobile phase IV [3]: 0.54 | RF, Methanol/Water/Hydrochloric acid (conc.), mobile phase IV [3]: 0.51 | RF, Acetone/Water/Hydrochloric acid (conc.), mobile phase IX [3]: 0.11 | RF, Methanol/Water/Hydrochloric acid (conc.), mobile phase IX [3]: 0.09 | RF, Dioxane/Water/Hydrochloric acid (conc.), mobile phase V [3]: 0.51 | RF, Acetone/Water/Hydrochloric acid (conc.), mobile phase V [3]: 0.42 | RF, Methanol/Water/Hydrochloric acid (conc.), mobile phase V [3]: 0.44 | RF, Dioxane/Water/Hydrochloric acid (conc.), mobile phase VI [3]: 0.33 | RF, Acetone/Water/Hydrochloric acid (conc.), mobile phase VI [3]: 0.36 | RF, Methanol/Water/Hydrochloric acid (conc.), mobile phase VI [3]: 0.36 | RF, Acetone/Water/Hydrochloric acid (conc.), mobile phase VII [3]: 0.32 | RF, Methanol/Water/Hydrochloric acid (conc.), mobile phase VII [3]: 0.23 | RF, Acetone/Water/Hydrochloric acid (conc.), mobile phase VIII [3]: 0.24 | RF, Methanol/Water/Hydrochloric acid (conc.), mobile phase VIII [3]: 0.15 | FRAP ([4]; 10 µM compound): 7.1 ± 2.1 µM | FRAP ([4]; 100 µM compound): 21 ± 7 µM

— publication PMC9229919, “4-Aminoquinoline-Based Adamantanes as Potential Anticholinesterase Agents in Symptomatic Treatment of Alzheimer’s Disease” (Pharmaceutics, 2022)
